Source: the NIST ThermoML archive (doi:10.1021/acs.jced.9b00752)
± gives the expanded uncertainty stated by the source.

Experiment: mn = molality of the nth substance listed, in mol/kg
Details: 100 kPa, Liquid, Vibrating tube method

Work on `N[C@@H](Cc1ccccc1)C(=O)O` [L-phenylalanine] + O yielded a mass density (278.65 K, m1 = 0.0036) of 1000.12 ± 0.11 kg/m3, a mass density (278.65 K, m1 = 0.011) of 1000.47 ± 0.11 kg/m3 and a mass density (278.65 K, m1 = 0.0183) of 1000.81 ± 0.11 kg/m3. For the same compound, the mass density (278.65 K, m1 = 0.033) was 1001.48 ± 0.12 kg/m3, the mass density (278.65 K, m1 = 0.0443) was 1002.05 ± 0.12 kg/m3 and the mass density (278.65 K, m1 = 0.0536) was 1002.44 ± 0.11 kg/m3. It also gave a mass density (278.65 K, m1 = 0.0623) of 1002.85 ± 0.12 kg/m3, a mass density (278.65 K, m1 = 0.074) of 1003.39 ± 0.12 kg/m3 and a mass density (278.65 K, m1 = 0.0855) of 1003.94 ± 0.12 kg/m3. It also gave a mass density (278.65 K, m1 = 0.0981) of 1004.54 ± 0.12 kg/m3, a mass density (278.65 K, m1 = 0.1158) of 1005.4 ± 0.12 kg/m3 and a mass density (279.15 K, m1 = 0.0036) of 1000.11 ± 0.11 kg/m3. It also gave a mass density (279.15 K, m1 = 0.011) of 1000.45 ± 0.11 kg/m3, a mass density (279.15 K, m1 = 0.0183) of 1000.79 ± 0.11 kg/m3 and a mass density (279.15 K, m1 = 0.033) of 1001.47 ± 0.12 kg/m3. The mass density (279.15 K, m1 = 0.0443) was 1002.04 ± 0.12 kg/m3, the mass density (279.15 K, m1 = 0.0536) was 1002.42 ± 0.11 kg/m3 and the mass density (279.15 K, m1 = 0.0623) was 1002.83 ± 0.12 kg/m3. The mass density (279.15 K, m1 = 0.074) was 1003.37 ± 0.12 kg/m3, the mass density (279.15 K, m1 = 0.0855) was 1003.92 ± 0.12 kg/m3 and the mass density (279.15 K, m1 = 0.0981) was 1004.51 ± 0.12 kg/m3. The mass density (279.15 K, m1 = 0.1158) was 1005.38 ± 0.12 kg/m3, the mass density (279.65 K, m1 = 0.0036) was 1000.09 ± 0.11 kg/m3 and the mass density (279.65 K, m1 = 0.011) was 1000.43 ± 0.11 kg/m3. For the same compound, the mass density (279.65 K, m1 = 0.0183) was 1000.77 ± 0.11 kg/m3, the mass density (279.65 K, m1 = 0.033) was 1001.45 ± 0.12 kg/m3 and the mass density (279.65 K, m1 = 0.0443) was 1002.02 ± 0.12 kg/m3. For the same compound, the mass density (279.65 K, m1 = 0.0536) was 1002.4 ± 0.11 kg/m3, the mass density (279.65 K, m1 = 0.0623) was 1002.81 ± 0.12 kg/m3 and the mass density (279.65 K, m1 = 0.074) was 1003.34 ± 0.12 kg/m3. The mass density (279.65 K, m1 = 0.0855) was 1003.89 ± 0.12 kg/m3, the mass density (279.65 K, m1 = 0.0981) was 1004.49 ± 0.12 kg/m3 and the mass density (279.65 K, m1 = 0.1158) was 1005.35 ± 0.12 kg/m3. The mass density (280.15 K, m1 = 0.0036) was 1000.07 ± 0.11 kg/m3, the mass density (280.15 K, m1 = 0.011) was 1000.41 ± 0.11 kg/m3 and the mass density (280.15 K, m1 = 0.0183) was 1000.75 ± 0.11 kg/m3. The mass density (280.15 K, m1 = 0.033) was 1001.42 ± 0.12 kg/m3, the mass density (280.15 K, m1 = 0.0443) was 1001.99 ± 0.12 kg/m3 and the mass density (280.15 K, m1 = 0.0536) was 1002.37 ± 0.11 kg/m3. The mass density (280.15 K, m1 = 0.0623) was 1002.78 ± 0.12 kg/m3, the mass density (280.15 K, m1 = 0.074) was 1003.32 ± 0.12 kg/m3 and the mass density (280.15 K, m1 = 0.0855) was 1003.87 ± 0.12 kg/m3. For the same compound, the mass density (280.15 K, m1 = 0.0981) was 1004.46 ± 0.12 kg/m3, the mass density (280.15 K, m1 = 0.1158) was 1005.32 ± 0.12 kg/m3 and the mass density (280.65 K, m1 = 0.0036) was 1000.04 ± 0.11 kg/m3. It also gave a mass density (280.65 K, m1 = 0.011) of 1000.39 ± 0.11 kg/m3, a mass density (280.65 K, m1 = 0.0183) of 1000.73 ± 0.11 kg/m3 and a mass density (280.65 K, m1 = 0.033) of 1001.39 ± 0.12 kg/m3. It also gave a mass density (280.65 K, m1 = 0.0443) of 1001.96 ± 0.12 kg/m3, a mass density (280.65 K, m1 = 0.0536) of 1002.35 ± 0.11 kg/m3 and a mass density (280.65 K, m1 = 0.0623) of 1002.75 ± 0.11 kg/m3. For the same compound, the mass density (280.65 K, m1 = 0.074) was 1003.28 ± 0.12 kg/m3, the mass density (280.65 K, m1 = 0.0855) was 1003.83 ± 0.12 kg/m3 and the mass density (280.65 K, m1 = 0.0981) was 1004.43 ± 0.12 kg/m3. For the same compound, the mass density (280.65 K, m1 = 0.1158) was 1005.28 ± 0.12 kg/m3, the mass density (281.15 K, m1 = 0.0036) was 1000.02 ± 0.11 kg/m3 and the mass density (281.15 K, m1 = 0.011) was 1000.36 ± 0.11 kg/m3. For the same compound, the mass density (281.15 K, m1 = 0.0183) was 1000.7 ± 0.11 kg/m3, the mass density (281.15 K, m1 = 0.033) was 1001.36 ± 0.12 kg/m3 and the mass density (281.15 K, m1 = 0.0443) was 1001.93 ± 0.11 kg/m3. For the same compound, the mass density (281.15 K, m1 = 0.0536) was 1002.31 ± 0.11 kg/m3, the mass density (281.15 K, m1 = 0.0623) was 1002.72 ± 0.11 kg/m3 and the mass density (281.15 K, m1 = 0.074) was 1003.25 ± 0.12 kg/m3. The mass density (281.15 K, m1 = 0.0855) was 1003.8 ± 0.12 kg/m3, the mass density (281.15 K, m1 = 0.0981) was 1004.39 ± 0.12 kg/m3 and the mass density (281.15 K, m1 = 0.1158) was 1005.24 ± 0.12 kg/m3. For the same compound, the mass density (281.65 K, m1 = 0.0036) was 999.986 ± 0.11 kg/m3, the mass density (281.65 K, m1 = 0.011) was 1000.33 ± 0.11 kg/m3 and the mass density (281.65 K, m1 = 0.0183) was 1000.66 ± 0.11 kg/m3. It also gave a mass density (281.65 K, m1 = 0.033) of 1001.33 ± 0.12 kg/m3, a mass density (281.65 K, m1 = 0.0443) of 1001.9 ± 0.11 kg/m3 and a mass density (281.65 K, m1 = 0.0536) of 1002.28 ± 0.11 kg/m3. The mass density (281.65 K, m1 = 0.0623) was 1002.68 ± 0.11 kg/m3, the mass density (281.65 K, m1 = 0.074) was 1003.21 ± 0.12 kg/m3 and the mass density (281.65 K, m1 = 0.0855) was 1003.76 ± 0.12 kg/m3. The mass density (281.65 K, m1 = 0.0981) was 1004.35 ± 0.12 kg/m3, the mass density (281.65 K, m1 = 0.1158) was 1005.2 ± 0.12 kg/m3 and the mass density (282.15 K, m1 = 0.0036) was 999.952 ± 0.11 kg/m3. It also gave a mass density (282.15 K, m1 = 0.011) of 1000.29 ± 0.11 kg/m3, a mass density (282.15 K, m1 = 0.0183) of 1000.63 ± 0.11 kg/m3 and a mass density (282.15 K, m1 = 0.033) of 1001.29 ± 0.12 kg/m3. It also gave a mass density (282.15 K, m1 = 0.0443) of 1001.86 ± 0.11 kg/m3, a mass density (282.15 K, m1 = 0.0536) of 1002.24 ± 0.11 kg/m3 and a mass density (282.15 K, m1 = 0.0623) of 1002.64 ± 0.11 kg/m3. For the same compound, the mass density (282.15 K, m1 = 0.074) was 1003.17 ± 0.12 kg/m3, the mass density (282.15 K, m1 = 0.0855) was 1003.72 ± 0.12 kg/m3 and the mass density (282.15 K, m1 = 0.0981) was 1004.31 ± 0.12 kg/m3. It also gave a mass density (282.15 K, m1 = 0.1158) of 1005.16 ± 0.12 kg/m3, a mass density (282.65 K, m1 = 0.0036) of 999.913 ± 0.11 kg/m3 and a mass density (282.65 K, m1 = 0.011) of 1000.25 ± 0.11 kg/m3. The mass density (282.65 K, m1 = 0.0183) was 1000.59 ± 0.11 kg/m3, the mass density (282.65 K, m1 = 0.033) was 1001.25 ± 0.12 kg/m3 and the mass density (282.65 K, m1 = 0.0443) was 1001.82 ± 0.11 kg/m3. The mass density (282.65 K, m1 = 0.0536) was 1002.19 ± 0.11 kg/m3, the mass density (282.65 K, m1 = 0.0623) was 1002.6 ± 0.11 kg/m3 and the mass density (282.65 K, m1 = 0.074) was 1003.13 ± 0.12 kg/m3. For the same compound, the mass density (282.65 K, m1 = 0.0855) was 1003.67 ± 0.12 kg/m3, the mass density (282.65 K, m1 = 0.0981) was 1004.26 ± 0.12 kg/m3 and the mass density (282.65 K, m1 = 0.1158) was 1005.11 ± 0.12 kg/m3. For the same compound, the mass density (283.15 K, m1 = 0.0036) was 999.87 ± 0.11 kg/m3, the mass density (283.15 K, m1 = 0.011) was 1000.21 ± 0.11 kg/m3 and the mass density (283.15 K, m1 = 0.0183) was 1000.54 ± 0.11 kg/m3. The mass density (283.15 K, m1 = 0.033) was 1001.21 ± 0.12 kg/m3, the mass density (283.15 K, m1 = 0.0443) was 1001.77 ± 0.11 kg/m3 and the mass density (283.15 K, m1 = 0.0536) was 1002.15 ± 0.11 kg/m3. For the same compound, the mass density (283.15 K, m1 = 0.0623) was 1002.55 ± 0.11 kg/m3, the mass density (283.15 K, m1 = 0.074) was 1003.08 ± 0.12 kg/m3 and the mass density (283.15 K, m1 = 0.0855) was 1003.63 ± 0.12 kg/m3. The mass density (283.15 K, m1 = 0.0981) was 1004.21 ± 0.12 kg/m3 and the mass density (283.15 K, m1 = 0.1158) was 1005.06 ± 0.12 kg/m3.
